Laboratory results published in patent US11384071B2, “Inhibitors of mechanotransduction to treat pain and modulate touch perception” (Max-Delbrück-Centrum für Molekulare Medizin in der …, priority 2016, dated 2022).

Assays:
STOML3-FLAG = molecular target: T1, STOML3-FLAG (Mus musculus, UniProt Q6PE84); assay: dSTORM imaging of STOML3-FLAG cluster size at the plasma membrane of N2A cells; type: cell-based; conditions: pre-incubation three hours, 20 μM, vs vehicle
T1 construct: expressed in transfected cells; host or cells: N2A (Neuro2A)
Experimental: N2A cells were cultured on EHS-Laminin coated precision coverglass, thickness 0.17, then transfected with a plasmid encoding STOML3-FLAG. After overnight incubation, cells were treated for 3 hours with 20 μM compound, or DMSO as a control. Cells were then fixed (15 min, 4% PFA), permeabilized (0.05% TritonX 100, 5 min) and blocked (phosphate buffered saline (PBS) containing 10% fetal goat serum (FGS), 37° C., 1 hr). Cell were labeled with mouse anti-FLAG antibody (M2 clone, 1:100 in PBS containing 10% FGS). The secondary antibody was an Alexa647-conjugated, goat anti-mouse antibody (1:100 in PBS plus 10% FGS, 1 h, 37° C.). After staining, the samples were fixed again. […]
For analysis of STOML3 domain size, all reconstructed images were blinded and then from each imaged cell 100 individual dots were cropped (size: 20×20 pixels). A 2D-Gaussian fit was calculated using the Igor software (WaveMetrics, USA). […] After domain sizes had been determined for each cell, images were unblinded and then normalized against the average domain size for control cells prepared and imaged on the same day.
We next determined whether OB-1 and OB-2 modulation of STOML3 oligomerization state influences clustering of the protein in the plasma membrane. […]

[1] = tested on: mechanically gated currents in mechanoreceptors; assay: Pillar array analysis of mechanically gated currents in DRG mechanoreceptors; type: cell-based, mouse; conditions: for sensitivity of mechanically gated currents in mechanoreceptors: acutely cultured mouse sensory neurons; for pillar deflections at which mechanically-gated currents are significantly inhibited: mechanoreceptors, FIG. 2e
Experimental: HEK-293 cells (passage numbers 4-20) were cultured in DMEM plus 10% fetal calf serum (FCS). Neuro2A (N2A) cells were cultured in DMEM/Opti-MEM media plus 10% FCS.—Sensory DRG neurons were isolated from 4 week old Mus musculus (C57Bl/6). Approximately 20 ganglia were collected from each mouse and individual cells were isolated by treating ganglia with […] collagenase IV for 30 min, followed by 1 ml of 0.05% trypsin, in PBS, for 5-20 min at 37° C. Enzyme-treated ganglia, in DMEM/F-12 media containing 10% Horse Serum (HS), were disrupted by gently passaging through a 20 G needle; cells were then collected by centrifugation (1000 rpm, 3 min), washed and finally re-suspended in DMEM/F-12, 10% HS media (at no point were neurotrophins added to the culture). Sensory neurons were then seeded on EHS-laminin coated substrate and cultured overnight. Experiments involving isolated sensory neurons were conducted within 24-36 hours of isolation of the cells.
Whole-cell, patch-clamp recordings were conducted as previously described 5-7, using patch pipettes with a tip resistance of 3-6 MΩ, filled with a solution of: 110 mM KCl, 10 mM NaCl, 1 mM MgCl2, 1 mM EGTA and 10 mM HEPES, adjusted to pH 7.3 with KOH. (For experiments on DRG neurons 10 mM QX-314 was added to the pipette to block voltage-gated sodium channels 8 Extracellular solutions contained 140 mM NaCl, 4 mM KCl, 2 mM CaCl2, 1 mM MgCl2, 4 mM glucose, 10 mM HEPES, adjusted to pH 7.4 with NaOH. A Zeiss 200 inverted microscope and an EPC-10 amplifier in combination with Patchmaster software was used, data was analyzed using Fitmaster software (HEKA Electronik GmbH, Germany). Pipette and membrane capacitance were compensated using the auto function of Patchmaster, series resistance was compensated by at least 60% to minimize voltage errors. Mechanical stimuli were applied using a polished glass probe driven by the MM3A micromanipulator (Kleindiek Nanotechnik, Germany). […]
Briefly, elastomeric pillar arrays of defined dimensions were cast in PDMS with an elasticity of 2 MPa. Cells cultured on these arrays were monitored using whole-cell patch-clamp whilst a glass probe was used to apply repeated deflections (of differing magnitudes) to an individual pilus directly beneath the cell. Images were obtained of the pilus before and after deflection and images were analyzed off-line to determine the exact deflection for each data point. […] Images were analyzed off-line using Igor software (WaveMetrics, USA). […] A power analysis was used to determine that moderate to strong effects between samples could be detected with a sample size >4. […] For quantitative analysis of mechanosensitivity we measured responses in the most sensitive sub-population of mechanoreceptors, previously defined as Typell mechanoreceptors (Poole et al., 2014).

T1 sequence (Q6PE84 whole entry): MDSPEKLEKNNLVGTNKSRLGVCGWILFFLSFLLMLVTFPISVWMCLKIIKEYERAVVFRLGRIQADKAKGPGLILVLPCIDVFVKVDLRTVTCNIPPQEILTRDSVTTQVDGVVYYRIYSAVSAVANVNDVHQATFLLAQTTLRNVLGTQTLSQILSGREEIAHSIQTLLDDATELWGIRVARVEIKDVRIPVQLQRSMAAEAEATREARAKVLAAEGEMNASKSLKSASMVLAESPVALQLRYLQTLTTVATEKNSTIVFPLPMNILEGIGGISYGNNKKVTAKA

With `Cc1ccnc(NC(=O)CSc2nnc3c4ccccc4n(Cc4ccccc4)c3n2)c1` [OB-2] the STOML3-FLAG cluster size (STOML3-FLAG) was “significantly reduced”, the “sensitivity of mechanically gated currents in mechanoreceptors” value [1] was “substantially reduced” and the “pillar deflections at which mechanically-gated currents are significantly inhibited” value [1] was “less than 50 nm”.

In the case of `CCOC(=O)c1c(-c2ccccc2)oc2ccc(Oc3c([N+](=O)[O-])ncn3C)cc12` [OB-1, Ethyl 5-((1-methyl-4-nitro-1H-imidazol-5-yl)oxy)-2-phenylbenzofuran-3-carboxylate], the STOML3-FLAG cluster size (STOML3-FLAG) is reported as “significantly reduced”, the “sensitivity of mechanically gated currents in mechanoreceptors” value [1] is reported as “substantially reduced” and the “pillar deflections at which mechanically-gated currents are significantly inhibited” value [1] is reported as “up to 250 nm”.
